Results taken from patent US20130017570A1, “METHOD FOR MONITORING STATE OF DIFFERENTIATION IN STEM CELL” (OLYMPUS CORPORATION, priority 2010, published 2013).

Test system: Nanog gene expression in mouse ES cells constitutively expressing Nanog-Eluc
Test: Luminescence imaging of Nanog-Eluc expression in ES cell colonies under FGF stimulus and FGF signal inhibitors
Assay type: cell-based
Conditions: FGF 10 ng/ml, medium without LIF, before inhibitor addition
From the text: Mouse ES cells used in Example 1-2 were used, which is constitutively expressing Nanog-Eluc. The cells were differentiation-induced with FGF (Fibroblast Growth Factor), and then observed under condition with signal transduction inhibitor. FGF signal is a signal transduction which induces stem cell differentiation, and it has been reported that the stem cell returns from the differentiated state to the undifferentiated state by the action of an inhibitor (T. Kunath et al., Development 134, pp. 2895-2902, 2007). The preparation method of ES cells is in the same manner as in Example 1-2. […]
D-luciferin (manufactured by Promega KK: final concentration of 500 μM) was added for luminescence observation, FGF (FGFβ human, PeproTech Inc.) was added so as to have a final concentration of 10 ng/ml, and then the mouse ES cells were observed using a luminescence microscope LV200 (manufactured by Olympus Corporation). As the luminescence observation conditions, the luminescence images of the mouse ES cells were taken under 55 min exposure at 1 hour intervals, thereby observing Nanog gene expression level. […]
After the time-lapse observation, the captured images were saved, and numerical data was analyzed from the observation images using an image analysis software “AQUACOSMOS (manufactured by Hamamatsu Photonics K.K.)”, and the analyzed numerical data was shown as graph data. […]

Substance: FGF: Fibroblast Growth Factor (FGFβ human, PeproTech Inc.) used for differentiation induction
- Nanog expression (luminescence intensity) when adding FGF, expression pattern C colonies: not seen
